Reference: patent publication US10517889B2, “Modulators of SMAD7 expression” (Ionis Pharmaceuticals, Inc., priority 2017, dated 2019)

Tests used:
[1] = Oligonucleotide concentration in liver and colon by LC-MS/MS after subcutaneous administration in CD-1 mice (Example 6); assay type: in vivo; conditions: 50 mg/kg subcutaneously twice a week for 7 weeks, 48 hours after the last dose
Experimental: (§1) Groups of 8-9 week old male CD-1 mice were injected subcutaneously twice a week for 7 weeks with 50 mg/kg of Ionis oligonucleotides (100 mg/kg/week dose). Each group contained 4 mice. One group of male CD-1 mice was injected subcutaneously twice a week for 7 weeks with PBS. Plasma was collected for analysis on day 28.
Oligonucleotide concentrations in the liver and colon were analyzed using LC-MS/MS method.

[2] = tested on: mouse Smad7 mRNA; experiment: Pharmacology: mouse Smad7 mRNA expression in liver, kidney, duodenum, ileum and colon after subcutaneous administration in CD-1 mice (Example 6); assay type: in vivo; conditions: 50 mg/kg subcutaneous twice weekly for 7 weeks, normalized to GAPDH
Experimental: as §1
The pharmacological activity of the Ionis oligonucleotides in mice was assessed by measuring mouse Smad7 mRNA expression in liver, kidney, duodenum, ileum, and colon at necropsy.
Tissue samples from all mice were analyzed for Smad7 mRNA expression using the primer probe set HTS7555 (forward sequence […], designated SEQ ID NO: 2737; reverse sequence […], designated SEQ ID NO: 2738; probe sequence […], designated SEQ ID NO: 2739), which was normalized to mRNA levels of the housekeeping gene, GAPDH. One-way ANOVA with Dunnet's comparison test was used for statistical analysis.

[3] = Blood chemistry markers after oral gavage in CD-1 mice (Example 7); assay type: in vivo; conditions: 500 mg/kg oral gavage once daily for 4 weeks, day 30
Experimental: The objective of this study was to evaluate the tolerability and pharmacodynamics of select Ionis human SMAD7 antisense oligonucleotides in CD-1 mice following 4 weeks of treatment. The mice were administered oligonucleotides by oral gavage.
(§2) Groups of 7-8 week old male CD-1 mice were given an oral gavage dose once daily for 4 weeks of 500 mg/kg of Ionis SMAD7 oligonucleotides. Each group contained 8 mice. One group of male CD-1 mice was administered saline by oral gavage daily.
Levels of transaminases, albumin, and BUN were measured using a Toshiba 200FR NEO chemistry analyzer (Toshiba Co., Japan).

[4] = Hematology assays after oral gavage in CD-1 mice (Example 7); assay type: in vivo; parameters: RBC: unit not given here; conditions: 500 mg/kg oral gavage once daily for 4 weeks
Experimental: as §2
Blood obtained from all mouse groups was measured by an ADVIA2120i hematology analyzer (Siemens, USA) for measurements of the various blood cells, as well as other hematology markers. None of the Ionis SMAD7 oligonucleotides caused changes in the levels of any of the hematology markers outside the expected range for antisense oligonucleotides.

[5] = Oligonucleotide concentrations in tissues by LC-MS/MS after oral gavage in CD-1 mice (Example 7); assay type: in vivo; conditions: 500 mg/kg oral gavage once daily for 4 weeks, 48 hours after last dose
Experimental: as §2
Oligonucleotide concentrations were detected in various tissues by LC-MS/MS analysis. The greatest concentration was found in the kidney, followed by the colon.

[6] = Body and organ weights after subcutaneous administration in beagle dogs (Example 8); assay type: in vivo; conditions: 30 mg/kg subcutaneous days 1, 3, 5, 8, 15, 22, 29, end of study
Experimental: (§3) There were 4 animals per group.
Body weights as well as kidney, spleen, liver (with gall bladder), mesenteric lymph node, heart, and thymus weights were measured at the end of the study. […] Ionis SMAD7 oligonucleotides that caused any changes in organ weights outside the expected range for antisense oligonucleotides were excluded from further studies.

[7] = Oligonucleotide concentration in tissues by LC-MS/MS after subcutaneous administration in beagle dogs (Example 8); assay type: in vivo; conditions: 30 mg/kg subcutaneous, 48 hours after the last dose
Experimental: as §3
Oligonucleotide concentrations of both ION 830025 and ION 798781 were detected in various tissues by LC-MS/MS analysis. The results are presented below, expressed as μg/g tissue. The data was collected 48 hours after the last dose.

[8] = Plasma chemistry markers after subcutaneous administration in beagle dogs (Example 8); conditions: 30 mg/kg subcutaneous days 1, 3, 5, 8, 15, 22, 29, plasma at day 31
Experimental: Groups of 24-25 week old male beagle dogs were injected subcutaneously with 30 mg/kg ION Ionis oligonucleotide. There were 4 animals per group. Dogs were injected every two days for the first week (day 1, 3, and 5) and once weekly thereafter (days 8, 15, 22, and 29). A control group of dogs received subcutaneous injections of PBS. Dogs were sacrificed on day 31 approximately 48 hours after the final dose and organs and plasma were harvested for further analysis.
To evaluate the effect of Ionis SMAD7 oligonucleotides on liver and kidney function, plasma levels of transaminases, albumin, creatine and BUN were measured using an automated clinical chemistry analyzer (Toshiba 200FR Neo chemistry analyzer, Toshiba Co., Japan).

[9] = tested on: human peripheral blood mononuclear cells (PBMCs); experiment: Human PBMC activation assay, cytokine levels (IL-10, IL-6, MCP-1, TNF-α) in supernatant after 24 hours (Example 9); conditions: human PBMC supernatant after 24 hours

Substance: 829994 (GGAGGCAGGGCCGCGA; 3-10-3 cEt gapmer, further chemistry not given here) [compound 829994]
- Oligonucleotide concentration, Colon [1]: 11 μg/g tissue
- Oligonucleotide concentration, Liver [1]: 45 μg/g tissue
- % inhibition of Smad7 mRNA expression (compared to control), Kidney [2]: 73%
- % inhibition of Smad7 mRNA expression (compared to control), Liver [2]: 58%
- ALT [3]: 38 IU/L
- AST [3]: 71 IU/L
- Albumin [3]: 3.2 g/dL
- BUN [3]: 25 mg/dL
- Bilirubin [3]: 0.3 mg/dL
- Basophils [4]: 0.01 10^3/μL
- Eosinophils [4]: 0.09 10^3/μL
- Hematocrit [4]: 51.5%
- Hemoglobin [4]: 15.2 g/dL
- Lymphocytes [4]: 80.4%
- MCH [4]: 15.1 pg
- MCHC [4]: 29.5 g/dL
- MCV [4]: 51.2 fL
- Monocytes [4]: 0.10 10^3/μL
- Neutrophils [4]: 14.0%
- RBC [4]: 10.1
- Reticulocytes [4]: 3.0%
- WBC [4]: 4.1 10^3/μL
- platelets [4]: 1219 10^3/μL
- Oligonucleotide concentration, Colon [5]: 5.7 µg/g
- Oligonucleotide concentration, Duodenum [5]: 0.8 µg/g
- Oligonucleotide concentration, Ileum [5]: 4.0 µg/g
- Oligonucleotide concentration, Kidney [5]: 9.8 µg/g
- Oligonucleotide concentration, Liver [5]: 1.3 µg/g
- Body weight [6]: 7335 g
- Heart weight [6]: 57.9 g
- Kidney weight [6]: 39.1 g
- Liver weight [6]: 250.0 g
- Mesenteric LN weight [6]: 9.0 g
- Spleen weight [6]: 22.8 g
- Thymus weight [6]: 6.3 g
- Full length oligonucleotide, Distal colon [7]: 7 µg/g
- Full length oligonucleotide, Duodenum [7]: 23 µg/g
- Full length oligonucleotide, Ileum [7]: 12 µg/g
- Full length oligonucleotide, Kidney [7]: 894 µg/g
- Full length oligonucleotide, Liver [7]: 335 µg/g
- Full length oligonucleotide, Proximal colon [7]: 11 µg/g
- ALT [8]: 62 IU/L
- AST [8]: 52 IU/L
- Albumin [8]: 3.1 g/dL
- BUN [8]: 15.4 mg/dL
- Bilirubin [8]: 0.1 mg/dL
- Creatine [8]: 0.7 mg/dL
- Levels of IL-6 ([9]; 0.0128 μM oligonucleotide): 4.1 pg/mL
- Levels of IL-10 ([9]; 0.0128 μM oligonucleotide): 2.0 pg/mL
- Levels of MCP-1 ([9]; 0.0128 μM oligonucleotide): 299.8 pg/mL
- Levels of TNF-α ([9]; 0.0128 μM oligonucleotide): 2.5 pg/mL
- Levels of IL-6 ([9]; 0.064 μM oligonucleotide): 3.8 pg/mL
- Levels of IL-10 ([9]; 0.064 μM oligonucleotide): 1.8 pg/mL
- Levels of MCP-1 ([9]; 0.064 μM oligonucleotide): 379.8 pg/mL
- Levels of TNF-α ([9]; 0.064 μM oligonucleotide): 2.9 pg/mL
- Levels of IL-6 ([9]; 0.32 μM oligonucleotide): 4.5 pg/mL
- Levels of IL-10 ([9]; 0.32 μM oligonucleotide): 1.8 pg/mL
- Levels of MCP-1 ([9]; 0.32 μM oligonucleotide): 489.7 pg/mL
- Levels of TNF-α ([9]; 0.32 μM oligonucleotide): 3.0 pg/mL
- Levels of IL-6 ([9]; 1.6 μM oligonucleotide): 15.9 pg/mL
- Levels of IL-10 ([9]; 1.6 μM oligonucleotide): 5.2 pg/mL
- Levels of MCP-1 ([9]; 1.6 μM oligonucleotide): 1300.0 pg/mL
- Levels of TNF-α ([9]; 1.6 μM oligonucleotide): 8.0 pg/mL
- Levels of IL-6 ([9]; 8 μM oligonucleotide): 202.5 pg/mL
- Levels of IL-10 ([9]; 8 μM oligonucleotide): 8.0 pg/mL
- Levels of MCP-1 ([9]; 8 μM oligonucleotide): 3370.0 pg/mL
- Levels of TNF-α ([9]; 8 μM oligonucleotide): 63.2 pg/mL
- Levels of IL-6 ([9]; 40 μM oligonucleotide): 66.1 pg/mL
- Levels of IL-10 ([9]; 40 μM oligonucleotide): 4.3 pg/mL
- Levels of MCP-1 ([9]; 40 μM oligonucleotide): 1998.4 pg/mL
- Levels of TNF-α ([9]; 40 μM oligonucleotide): 32.3 pg/mL
- Levels of IL-6 ([9]; 200 μM oligonucleotide): 97.1 pg/mL
- Levels of IL-10 ([9]; 200 μM oligonucleotide): 3.8 pg/mL
- Levels of MCP-1 ([9]; 200 μM oligonucleotide): 391.7 pg/mL
- Levels of TNF-α ([9]; 200 μM oligonucleotide): 28.6 pg/mL

Substance: 830121 (AGAATCAAGCCCTGGC; 3-10-3 cEt gapmer, further chemistry not given here) [compound 830121]
- Oligonucleotide concentration, Colon [1]: 14 μg/g tissue
- Oligonucleotide concentration, Liver [1]: 50 μg/g tissue
- % inhibition of Smad7 mRNA expression (compared to control), Kidney [2]: 0%
- % inhibition of Smad7 mRNA expression (compared to control), Liver [2]: 24%
- ALT [3]: 45 IU/L
- AST [3]: 75 IU/L
- Albumin [3]: 3.3 g/dL
- BUN [3]: 24 mg/dL
- Bilirubin [3]: 0.2 mg/dL
- Basophils [4]: 0.01 10^3/μL
- Eosinophils [4]: 0.08 10^3/μL
- Hematocrit [4]: 51.8%
- Hemoglobin [4]: 15.1 g/dL
- Lymphocytes [4]: 81.7%
- MCH [4]: 15.0 pg
- MCHC [4]: 29.1 g/dL
- MCV [4]: 51.6 fL
- Monocytes [4]: 0.15 10^3/μL
- Neutrophils [4]: 11.6%
- RBC [4]: 10.0
- Reticulocytes [4]: 3.0%
- WBC [4]: 4.1 10^3/μL
- platelets [4]: 1170 10^3/μL
- Oligonucleotide concentration, Colon [5]: 2.7 µg/g
- Oligonucleotide concentration, Duodenum [5]: 0.4 µg/g
- Oligonucleotide concentration, Ileum [5]: 1.1 µg/g
- Oligonucleotide concentration, Kidney [5]: 13.2 µg/g
- Oligonucleotide concentration, Liver [5]: 0.9 µg/g
- Body weight [6]: 6091 g
- Heart weight [6]: 52.6 g
- Kidney weight [6]: 40.0 g
- Liver weight [6]: 202.0 g
- Mesenteric LN weight [6]: 12.2 g
- Spleen weight [6]: 27.5 g
- Thymus weight [6]: 2.8 g
- Full length oligonucleotide, Distal colon [7]: 20 µg/g
- Full length oligonucleotide, Duodenum [7]: 26 µg/g
- Full length oligonucleotide, Ileum [7]: 26 µg/g
- Full length oligonucleotide, Kidney [7]: 1468 µg/g
- Full length oligonucleotide, Liver [7]: 443 µg/g
- Full length oligonucleotide, Proximal colon [7]: 19 µg/g
- ALT [8]: 1454 IU/L
- AST [8]: 383 IU/L
- Albumin [8]: 3.0 g/dL
- BUN [8]: 20.0 mg/dL
- Bilirubin [8]: 2.6 mg/dL
- Creatine [8]: 0.9 mg/dL
- Levels of IL-6 ([9]; 0.0128 μM oligonucleotide): 4.1 pg/mL
- Levels of IL-10 ([9]; 0.0128 μM oligonucleotide): 2.0 pg/mL
- Levels of MCP-1 ([9]; 0.0128 μM oligonucleotide): 324.5 pg/mL
- Levels of TNF-α ([9]; 0.0128 μM oligonucleotide): 3.0 pg/mL
- Levels of IL-6 ([9]; 0.064 μM oligonucleotide): 4.9 pg/mL
- Levels of IL-10 ([9]; 0.064 μM oligonucleotide): 1.3 pg/mL
- Levels of MCP-1 ([9]; 0.064 μM oligonucleotide): 370.4 pg/mL
- Levels of TNF-α ([9]; 0.064 μM oligonucleotide): 3.5 pg/mL
- Levels of IL-6 ([9]; 0.32 μM oligonucleotide): 4.4 pg/mL
- Levels of IL-10 ([9]; 0.32 μM oligonucleotide): 1.3 pg/mL
- Levels of MCP-1 ([9]; 0.32 μM oligonucleotide): 336.4 pg/mL
- Levels of TNF-α ([9]; 0.32 μM oligonucleotide): 3.1 pg/mL
- Levels of IL-6 ([9]; 1.6 μM oligonucleotide): 5.4 pg/mL
- Levels of IL-10 ([9]; 1.6 μM oligonucleotide): 3.1 pg/mL
- Levels of MCP-1 ([9]; 1.6 μM oligonucleotide): 501.8 pg/mL
- Levels of TNF-α ([9]; 1.6 μM oligonucleotide): 3.6 pg/mL
- Levels of IL-6 ([9]; 8 μM oligonucleotide): 7.5 pg/mL
- Levels of IL-10 ([9]; 8 μM oligonucleotide): 3.7 pg/mL
- Levels of MCP-1 ([9]; 8 μM oligonucleotide): 717.1 pg/mL
- Levels of TNF-α ([9]; 8 μM oligonucleotide): 4.8 pg/mL
- Levels of IL-6 ([9]; 40 μM oligonucleotide): 14.3 pg/mL
- Levels of IL-10 ([9]; 40 μM oligonucleotide): 2.2 pg/mL
- Levels of MCP-1 ([9]; 40 μM oligonucleotide): 1225.2 pg/mL
- Levels of TNF-α ([9]; 40 μM oligonucleotide): 9.4 pg/mL
- Levels of IL-6 ([9]; 200 μM oligonucleotide): 35.2 pg/mL
- Levels of IL-10 ([9]; 200 μM oligonucleotide): 1.4 pg/mL
- Levels of MCP-1 ([9]; 200 μM oligonucleotide): 411.0 pg/mL
- Levels of TNF-α ([9]; 200 μM oligonucleotide): 14.2 pg/mL
